Test results from patent US20200199530A1, “METHODS OF DIFFERENTIATING STEM CELL-DERIVED ECTODERMAL LINEAGE PRECURSORS” (MEMORIAL SLOAN-KETTERING CANCER CENTER, priority 2017, published 2020).
Entries after “also recorded” stand apart in the source; their conditions may differ. Ends that are not written are not given here.

Columns and labels:
Format in all cases: cell-based, human
[1] = test system: hPSC-derived pituitary cells; experiment: Stimulation of hormone release in vitro (ELISA); conditions: day 30 cells, CRF 1 μM, Somatocrinin 1 μg/ml, vs solvent control; for ACTH release: Stressin I 2 μM, Urocortin 500 nM, Ghrelin 1 μM
Protocol: To stimulate hormone release in vitro, cells were differentiated in 24 well plates as described above. On day 30 of differentiation cells were washed once with PBS and 250 μl of fresh medium containing either the solvent or the stimulant were added to each well. After 12 h the supernatant was removed and centrifuged for 5 min at 2000 g to pellet debris. Supernatant was transferred into fresh reaction tubes, flash frozen and stored at −80° C. until ELISA measurements. Stimulants used were: CRF (Tocris, 1 μM), Stressin I (Tocris, 2 μM), Ghrelin (Tocris, 1 μM), Somatocrinin (Accurate Chemical, 1 μg/ml), Nafarelin (Tocris, 1 μM) and Urocortin (Tocris, 500 nM).
Hormone concentration in the supernatant of cells or in animal serum was analyzed using ELISA measurements. Hormone concentration in the cell culture supernatant was assessed using traditional single hormone ELISA Kits according to the manufactures manual. ACTH (Calbiotech, detects rat and human ACTH), hGH (R&D Systems, human specific), FSH (Calbiotech, FSH (lumELISA, human specific) and corticosterone (Abcam). Plates were read using an EnSpire Multimode plate reader (PerkinElmer). Hormone concentration in in vivo samples was analyzed using either traditional ELISA (for ACTH only, serum diluted 1:2) or species specific (human or rat) Milliplex multiplex ELISA using Luminex technology (Millipore). Magnetic bead-based sandwich immunoassay was performed according to the manufactures manual. 25 μl of undiluted serum samples in duplicate wells were analyzed by Luminex FlexMap 3D (Luminex Corp, Austin, Tex.). Cytokine concentrations were determined by Luminex Xponent 4.1 and EMD-Millipore Milliplex Analyst v5.1 using 5-p log analysis.

[2] = test system: hPSC (SIX1::H2B-GFP reporter); experiment: Cranial placode induction in E6 media, SIX1 positive cells; conditions: E6 with SB431542 and BMP pulse; FIG. 2G/38B
Protocol: (§1) All differentiations starting from E8 were dissociated into single cells using EDTA and re-plated at high density in E8 with the ROCK inhibitor (Tocris). Cells were typically seeded at a density of 200,000 cells/cm^2 on Matrigel coated dishes. Switching from E8 to E6 triggered differentiations (i.e. d0). Neuroectoderm (NE) formation was generated by culturing the cells in E6 with 10 μM SB and 500 nM LDN until d12. Neural Crest (NC) was first treated with 10 μM SB, 600 nM CHIR and 1 ng/ml BMP4 from d0-d2. At d3, cells were maintained in 10 μM SB with 1.5 uM CHIR until d12. Lens placode was first treated with 10 μM SB and 5 ng/ml BMP4 from d0-d2. At d3, cells were maintained in 10 μM SB with 50 ng/ml FGF2 until d12. Trigeminal placode was first treated with 10 μM SB and 5 ng/ml BMP4 from d0-d2. At d2, 600 nm CHIR was added. At d3, cells were treated with 10 μM SB and 600 nM CHIR. From d4-d12, cells were treated with 10 μM SB. Finally, non-neural ectoderm (NNE) was treated with 10 μM SB, 10 μM SU5402 and 10 ng/ml BMP4 from d0-d1, and then treated with 10 μM SB and 5 ng/ml BMP4 from d2-d12.
Cranial Placode differentiation. Day 0 (0-24 hrs): Add E6 media containing 5 ng/ml BMP4+10 μM SB to cells.
Day 1 (24-48 hrs): Change media with E6 media containing 5 ng/ml BMP4+10 μM SB to cells.
Day 2 (48-72 hrs): Change media with E6 media containing 5 ng/ml BMP4+10 μM SB to cells. […]

[3] = test system: hPSC differentiated towards CP (SIX1); experiment: Phenanthroline in CP differentiation: marker expression and SIX1 positive cells; conditions: for SIX1 positive cells: CP protocol, FIG. 6E, Phenanthroline alone = absence of FGF2, control 18%
Protocol: as §1
(§2) H9 SIX1 H2B::GFP cells were differentiated into lens placode as described earlier and plated on 96 well plates coated with Matrigel. On day 3 (day before SIX1 H2B::GFP can be detected in individual cells) the medium was additionally supplemented with compounds from the LOPAC library. Two different concentrations (1 μM and 10 μM) per compound were used. Medium was not changed until day 6 of differentiation. On day 6 of differentiation plates were washed once with PBS and cells were fixed with 4% PFA. To increase the signal intensity over background, the cells were stained using an antibody against GFP. After labeling with an appropriate Alexa488-conjugated secondary antibody and the nuclear counterstain DAPI, cells were analyzed using the Meta Express software (Meta-morph) by calculating the percent nuclear GFP signal over DAPI positive cells.

H9 SIX1 H2B::GFP cells = experiment: LOPAC small-molecule screen for enhancers of placode fate and hit validation; conditions: for validation of primary hits: percentage of cells expressing SIX1: CP protocol, FIG. 6C, 13A/13B, 44A/44B; for expression of SIX1 relative to control differentiations (primary screen): LOPAC library, 1 μM and 10 μM, added day 3, read day 6
Protocol: as §2

hPSCs = experiment: Tolerability of small molecules during E6-based differentiation; conditions: had to be re-titrated

Compound: Somatocrinin: stimulant of hormone release (Accurate Chemical, 1 μg/ml) (YADAIFTNSYRKVLGQLSARKLLQDIMSRQQGESNQERGARARL; ends and bridges not checked; UniProt P01286 32-75, looked up)
- ACTH release [1]: not
- ACTH release ([1]; listed as somatocrinin): did not trigger ACTH release
- GH release [1]: induced
- GH release ([1]; listed as somatocrinin): triggered robust increase in GH release

Compound: FGF2: activator of FGF signaling
- SIX1 positive cells after addition of FGF agonist [2]: ~50%
- SIX1 positive cells [3]: 34%

Compound: Urocortin: stimulant of hormone release (Tocris, 500 nM) (DNPSLSIDLTFHLLRTLLELARTQSQRERAEQNRIIFDSV; ends and bridges not checked; UniProt P55089 83-122, looked up)
- ACTH release [1]: specifically induced
- ACTH release ([1]; listed as urocortin): induced release of ACTH

Compound: CN1CCC(c2c[nH]c3ccc(O)cc23)CC1 [BRL-5443]
- validation of primary hits: percentage of cells expressing SIX1 (H9 SIX1 H2B::GFP cells): increased the level of SIX1 expressing CP precursor cells
- validation of primary hits: percentage of cells expressing SIX1 (H9 SIX1 H2B::GFP cells; listed as BRL-54443): did not produce a significant difference
- expression of SIX1 relative to control differentiations (primary screen) (H9 SIX1 H2B::GFP cells): increased expression of SIX1 above the levels observed in control differentiations

Compound: c1cnc2c(c1)ccc1cccnc12 [Phenanthroline]
- SIX1 positive cells [3]: 69%
- fold increase of SIX1 positive cells versus control ([3]; absence of FGF2, 69% versus 18%): ~4 fold
- expression of other lineage markers (Sox10, T, MyoD, Sox17) ([3]; differentiation towards CP, FIG. 6D): without inducing the expression of other lineage markers
- validation of primary hits: percentage of cells expressing SIX1 (H9 SIX1 H2B::GFP cells): confirmed to reliably enhance the percentage of cells expressing Six1; also recorded: confirmed to trigger a robust increase in the percentage of cells expressing SIX1; also recorded: large majority of cells
- expression of SIX1 relative to control differentiations (primary screen) (H9 SIX1 H2B::GFP cells): increased expression of SIX1 above the levels observed in control differentiations

Compound: CRF: stimulant of hormone release (Tocris, 1 μM) (SEEPPISLDLTFHLLREVLEMARAEQLAQQAHSNRKLMEII; ends and bridges not checked; UniProt P06850 154-194, looked up)
- ACTH release [1]: induced release of ACTH; also recorded: specifically induced
- GH release [1]: not

Compound: Ghrelin: stimulant used (Tocris, 1 μM) (GSSFLSPEHQRVQQRKESKKPPAKLQPR; ends and bridges not checked; UniProt Q9UBU3 24-51, looked up)
- ACTH release [1]: did not trigger ACTH release and not

Compound: Cc1c[nH]c(/C=C2\C(=O)Nc3ccccc32)c1CCC(=O)O [SU5402, 2-[(1,2-Dihydro-2-oxo-3H-indol-3-ylidene)methyl]-4-methyl-1H-pyrrole-3-pr-opanoic acid]
- cell killing at the original (KSR protocol) concentration (hPSCs): effectively killed the cells
